Test results as given in patent US7772177B2, “BIR domain binding compounds” (Aegera Therapeutics, Inc., priority 2005, dated 2010).

What was measured:
GST-XIAP BIR3RING = biological target: T1, GST-XIAP BIR3RING (Homo sapiens, UniProt P98170); assay: Fluorescence polarization-based competition assay, XIAP Bir3-RING; type: binding
T1 construct: made in house; host or cells: E. coli DH5-alpha
Method: GST-XIAP BIR3RING: XIAP coding sequence amino acids 246-497 cloned into PGEX2T1 via BamH1 and AVA I. The plasmid was transformed into E. coli DH5α for use in protein expression and purification.
(§1) A fluorescent peptide probe, Fmoc-Ala-Val-Pro-Phe-Tyr(t-Bu)-Leu-Pro-Gly(t-Bu)-Gly-OH was prepared using standard Fmoc chemistry on 2-chlorotrityl chloride resin (Int. J. Pept. Prot. Res. 38:555-561, 1991). Cleavage from the resin was performed using 20% acetic acid in dichloromethane (DCM), which left the side chain still blocked. The C-terminal protected carboxylic acid was coupled to 4′-(aminomethyl)fluorescein (Molecular Probes, A-1351; Eugene, Oreg.) using excess diisopropylcarbodiimide (DIC) in dimethylformamide (DMF) at room temperature and was purified by silica gel chromatography (10% methanol in DCM). The N-terminal Fmoc protecting group was removed using piperidine (20%) in DMF, and purified by silica gel chromatography (20% methanol in DCM, 0.5% HOAc). Finally, the t-butyl side chain protective groups were removed using 95% trifluoroacetic acid containing 2.5% water and 2.5% triisopropyl silane. […] Compound #174 was also used as a fluorescent probe in this assay.
(§2) For all assays, the fluorescence and fluorescence-polarization was evaluated using a Tecan Polarion instrument with the excitation filter set at 485 nm and the emission filter set at 535 nm. For each assay, the concentration of the target protein was first establish by titration of the selected protein in order to produce a linear dose-response signal when incubated alone in the presence of the fluorescent probe. Upon establishing these conditions, the compounds potency (IC50) and selectivity, was assessed in the presence of a fix defined-amount of target protein and fluorescent probe and a 10 point serial dilution of the selected compounds. For each IC50 curve, the assays were run as followed: 25 ul/well of diluted compound in 50 mM MES buffer pH 6.5 were added into a black 96 well plate then 25 ul/well of bovine serum albumin (BSA) at 0.5 mg/ml in 50 mM MES pH 6.5. Auto-fluorescence for each compound was first assessed by performing a reading of the compound/BSA solution alone. Then 25 ul of the fluorescein probe diluted into 50 mM MES containing 0.05 mg/ml BSA were added and a reading to detect quenching of fluorescein signal done. Finally 25 ul/well of the target or control protein (GST-BIRs) diluted at the appropriate concentration in 50 mM MES containing 0.05 mg/ml BSA were added and the fluorescence polarization evaluated.
(§3) For each assay the relative polarization-fluorescence units were plotted against the final concentrations of compound and the IC50 calculated using the Grad pad prism software and/or Cambridge soft. The ki value were derived from the calculated IC50 value as described above and according to the equation described in Nikolovska-Coleska, Z. (2004) Anal Biochem 332, 261-273.
(§4) Compounds exemplified in Table 6 were tested and found to have IC50s in the following ranges: A: >10 μM; B: <10 μM; C: <1 μM using the fluorescence polarization assay, as shown in Table 5. Each of the IC50s was calculated from Graph Pad.

GST-HIAP2 (cIAP-1) BIR 3 = biological target: T2, GST-HIAP2 (cIAP-1) BIR 3 (Homo sapiens, UniProt Q13490); assay: Fluorescence polarization-based competition assay, cIAP-1 Bir3; type: binding
T2 construct: made in house; host or cells: E. coli DH5-alpha
Method: GST-HIAP2 (cIAP-1) BIR 3: HIAP2 coding sequence from amino acids 251-363 cloned into PGex4T3 via BamH1 and XhoI. The plasmid was transformed into E. coli DH5α for use in protein expression and purification.
as §1, §2, §3, §4

GST-HIAP1(cIAP-2) BIR 3 = biological target: T3, GST-HIAP1(cIAP-2) BIR 3 (Homo sapiens, UniProt Q13489); assay: Fluorescence polarization-based competition assay, cIAP-2 Bir3; type: binding
T3 construct: made in house; host or cells: E. coli DH5-alpha
Method: GST-HIAP1(cIAP-2) BIR 3: HIAP1 coding sequence from amino acids 236-349, cloned into PGex4T3 via BamH1 and XhoI. The plasmid was transformed into E. coli DH5α for use in protein expression and purification.
as §1, §2, §3, §4

[1] = biological target: T4, XIAP Bir3-RING (GST-BIR 3RING) (Homo sapiens, UniProt P98170); assay: Caspase de-repression assay using cellular extracts (apoptosome), XIAP Bir3-RING; type: biochemical; details: 293 cell S100 extract
T4 construct: made in house; host or cells: E. coli DH5-alpha
Method: (§5) 100 ug of 293 cell S100 extract and 0.25 uM-2 uM of GST-Xiap fusion protein (GST-BIR 3RING, GST-linker BIR2 BIR3RING) were co-incubated with serial dilutions of compound (0.02 uM-40 uM). Extracts were activated by adding 1 mM dATP, 0.1 mM ALLN, 133 ug Cytochrome C (final concentrations), and incubating at 37° C. for 25 minutes. All reactions and dilutions used S100 buffer (50 mM Pipes pH 7.0, 50 mM KCl, 0.5 mM EGTA pH 8.0, 2 mM MgCl2 supplemented with 1/1000 dilutions of 2 mg/ml Cytochalisin B, 2, mg/ml Chymotstatin, Leupeptin, Pepstatin, Antipain, 0.1M PMSF, 1M DTT). Final reaction volume was 30 ul. Caspase-3 activity was measured by overlaying 30 ul of a 0.4 mM DEVD-AMC solution. AMC cleavage was measured in a TECAN spectrophotometer at 360 nm excitation and 444 nm emission, on a kinetic cycle of 1 hour with readings taken every 5 minutes. Caspase activity was calculated as Vo of AMC fluorescence/sec. Caspase de-repression by our compounds were compared to fully activated extract and activated extract repressed by the presence of XIAP fusion protein.
(§6) Results: Compounds were also tested in the apoptosome assay and the linker-BIR2/caspase-3 inhibition assay and found to have IC50s in the following ranges: A: >10 μM; B: <10 μM; C: <1 μM, as shown in Table 7.

[2] = biological target: T5, XIAP Bir2-Bir3-RING (GST-linker BIR2 BIR3RING) (Homo sapiens, UniProt P98170); assay: Caspase de-repression assay using cellular extracts (apoptosome), XIAP Bir2-Bir3-RING; type: biochemical; details: 293 cell S100 extract
T5 construct: made in house; host or cells: E. coli DH5-alpha
Method: as §5, §6

[3] = biological target: T6, caspase-3 inhibited by linker BIR2-BIR3-RING of XIAP (Homo sapiens, UniProt P98170); assay: Caspase-3 linker-BIR2-BIR3-RING derepression assay; type: biochemical
T6 construct: made in house; host or cells: E. coli DH5-alpha (GST-XIAP); E. coli AD494 (His-caspase-3)
Method: In order to determine the relative activity of the selected compound against BIR2, an in vitro assay was used where caspase-3 was inhibited by linker-BIR2 or linker BIR2-BIR3-RING of XIAP. Briefly, 1.5 ul of the enzyme, 0.25 uM to 2 uM of GST-Xiap fusion protein (GST-linker BIR2, GST-linker BIR2BIR3RING) were co-incubated with serial dilutions of compound (80 uM-0.04 uM). Caspase 3 activity was measured by overlaying 25 ul of a 0.4 mM DEVD-AMC solution. Final reaction volume was 100 ul. All dilutions were performed in caspase buffer (50 mM Hepes pH 7.4, 100 mM NaCl, 10% sucrose, 1 mM EDTA, 10 mM DTT, 0.1% CHAPS (Stennicke, H. R., and Salvesen, G. S. (1997). Biochemical characteristics of caspase-3, -6, -7, and -8. J. Biol. Chem. 272, 25719-25723)).
The fluorescent AMC released from the caspase-3 hydrolysis of the substrate was measured in a TECAN spectrophotometer at 360 nm excitation and 444 nm emission, on a kinetic cycle of 30 minutes with readings taken every 2 minutes. Caspase activity was calculated as Vo of AMC fluorescence/sec. Caspase de-repression by our compounds were compared to caspase-3 alone and caspase 3 repressed by the presence of XIAP fusion protein.
as §6

T3 sequence (Q13489 236-349): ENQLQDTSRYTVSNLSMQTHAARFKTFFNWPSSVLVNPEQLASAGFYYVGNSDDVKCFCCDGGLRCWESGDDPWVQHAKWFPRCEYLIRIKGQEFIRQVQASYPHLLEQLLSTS
T5 sequence (P98170 93-497): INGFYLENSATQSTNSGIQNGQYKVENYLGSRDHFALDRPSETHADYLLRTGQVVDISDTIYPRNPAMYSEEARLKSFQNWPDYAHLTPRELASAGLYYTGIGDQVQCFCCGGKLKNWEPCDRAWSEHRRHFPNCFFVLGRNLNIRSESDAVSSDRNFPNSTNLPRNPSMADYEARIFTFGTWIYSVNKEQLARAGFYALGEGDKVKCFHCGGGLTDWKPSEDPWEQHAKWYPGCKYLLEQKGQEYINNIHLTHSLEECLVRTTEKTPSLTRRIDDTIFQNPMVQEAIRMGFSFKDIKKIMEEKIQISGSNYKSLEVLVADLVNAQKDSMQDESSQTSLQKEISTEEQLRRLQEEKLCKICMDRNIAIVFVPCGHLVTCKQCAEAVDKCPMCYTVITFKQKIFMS
T6 sequence (P98170 93-497): as above
T4 sequence (P98170 246-497): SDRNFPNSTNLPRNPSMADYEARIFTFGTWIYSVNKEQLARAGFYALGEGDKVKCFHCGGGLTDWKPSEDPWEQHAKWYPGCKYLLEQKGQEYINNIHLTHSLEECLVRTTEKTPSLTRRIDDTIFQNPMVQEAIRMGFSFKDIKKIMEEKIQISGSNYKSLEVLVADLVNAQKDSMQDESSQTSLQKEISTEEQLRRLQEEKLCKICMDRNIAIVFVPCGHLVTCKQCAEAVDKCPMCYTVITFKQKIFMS
T1 sequence (P98170 246-497): as above
T2 sequence (Q13490 251-363): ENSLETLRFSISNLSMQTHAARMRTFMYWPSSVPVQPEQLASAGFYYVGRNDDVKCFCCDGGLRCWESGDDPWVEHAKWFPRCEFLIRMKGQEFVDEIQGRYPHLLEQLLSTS

| SMILES | IC50 (GST-XIAP BIR3RING) | IC50 (GST-HIAP2 (cIAP-1) BIR 3) | IC50 (GST-HIAP1(cIAP-2) BIR 3) | IC50 [1] | IC50 [2] | IC50 [3] |
| --- | --- | --- | --- | --- | --- | --- |
| CC[C@H](N)C(=O)N[C@H](C(=O)N1CCC[C@H]1CN(C(C)=O)[C@@H]1CCCc2ccccc21)C(C)C [Compound 9] | < 10 µM | > 10 µM | > 10 µM | < 1 µM | > 10 µM | > 10 µM |
| CN[C@@H](C)C(=O)N[C@H](C(=O)N1CCC[C@H]1CN(CCc1ccccc1)C(=O)C(F)(F)F)C(C)(C)C [Compound 10] | < 1 µM | < 1 µM | < 1 µM | < 10 µM | > 10 µM | > 10 µM |
| CC[C@H](N)C(=O)N[C@H](C(=O)N1CCC[C@H]1CN(Cc1ccccc1)C(=O)C(F)(F)F)C(C)C [Compound 12] | < 10 µM | > 10 µM | > 10 µM | < 1 µM | > 10 µM | > 10 µM |
| CC[C@H](N)C(=O)N[C@H](C(=O)N1CCC[C@H]1CN(C(=O)C(F)(F)F)[C@H](C)c1ccccc1)C(C)C [Compound 13] | < 10 µM | < 10 µM | > 10 µM | < 10 µM | > 10 µM | > 10 µM |
| CC[C@H](N)C(=O)N[C@H](C(=O)N1CCC[C@H]1CNC(=O)Cc1ccccc1)C(C)C [Compound 14] | > 10 µM | > 10 µM | > 10 µM | < 10 µM | > 10 µM | > 10 µM |
| CC(C)[C@H](NC(=O)[C@H](C)N)C(=O)N1CCC[C@H]1CN(CCc1ccccc1)C(=O)OCc1ccccc1 [Compound 15] | < 1 µM | < 1 µM | < 1 µM | < 10 µM | > 10 µM | > 10 µM |
| CC(C)[C@H](NC(=O)[C@H](C)N)C(=O)N1CCC[C@H]1CN(CCc1ccccc1)S(C)(=O)=O [Compound 17] | < 10 µM | < 1 µM | < 1 µM | < 1 µM | > 10 µM | > 10 µM |
| CC(C)[C@H](NC(=O)[C@H](C)N)C(=O)N1CCC[C@H]1CNCCc1ccccc1 [Compound 18] | < 1 µM | < 1 µM | < 1 µM | < 1 µM | > 10 µM | > 10 µM |
| CC(=O)N(CCc1ccccc1)C[C@@H]1CCCN1C(=O)[C@@H](NC(=O)[C@H](C)N)C(C)C [Compound 19] | < 1 µM | < 1 µM | < 1 µM | < 1 µM | > 10 µM | > 10 µM |
| CC(C)[C@H](NC(=O)[C@H](C)N)C(=O)N1CCC[C@H]1CN(CCc1ccccc1)C(=O)C(F)(F)F [Compound 20] | < 1 µM | < 1 µM | < 1 µM | < 1 µM | > 10 µM | > 10 µM |
| CC(C)[C@H](NC(=O)[C@H](C)N)C(=O)N1CCC[C@H]1CN(CCc1ccccc1)C(=O)CCc1ccccc1 [Compound 21] | < 1 µM | < 1 µM | < 1 µM | < 1 µM | > 10 µM | > 10 µM |
| CCCC(=O)N(CCc1ccccc1)C[C@@H]1CCCN1C(=O)[C@@H](NC(=O)[C@H](C)N)C(C)C [Compound 22] | < 1 µM | < 1 µM | < 1 µM | < 1 µM | > 10 µM | > 10 µM |
| CC(C)[C@H](NC(=O)[C@H](C)N)C(=O)N1CCC[C@H]1CN(CCc1ccccc1)C(=O)Cc1ccccc1 [Compound 23] | < 1 µM | < 1 µM | < 1 µM | < 1 µM | > 10 µM | > 10 µM |
| CN[C@@H](C)C(=O)N[C@H](C(=O)N1CCC[C@H]1CN(CCc1ccccc1)C(=O)CCc1ccccc1)C(C)(C)C [Compound 27] | < 1 µM | < 1 µM | < 1 µM | < 1 µM | < 10 µM | > 10 µM |
